According to patent publication US11541029B2, “High penetration compositions and their applications” (Techfields Pharma Co., Ltd., priority 2008, dated 2023):

Assays:
[1] = tested on: GK rats (SLAC/GK, type 2 diabetes); experiment: Anti-diabetes (type II) activity of HPCs of NSAIAs in GK rats; assay type: in vivo; conditions: 30 mg/kg transdermally once per day, no fasting
Method: (§1) A HPC in the present disclosure lowered blood glucose levels in rat models (SLAC/GK, type 2 diabetes, n=7). 30 mg/kg of 8% diethylaminoethyl acetylsalicylate.HCl salt (P-1, in 25% ethanol); 4-acetamidophenyl salicylyldimethylaminobutyrate.HCl (P-6, in 25% ethanol), diethylaminoethyl 5-(2,4-difluorophenyl)acetylsalicylate.5-(2,4-difluorophenyl)acetylsalicylic acid salt (P-8, in 25% ethanol), diethylaminoethyl salicylsalicylate.HCl salt (P-9, in 25% ethanol), diethylaminoethyl salicylate.AcOH(P-10, in 25% ethanol), diethylaminoethyl 5-acetamido-acetylsalicylate.HCl(P-58, in 25% ethanol), diethylaminoethyl acetylsalicylsalicylate. HCl salt (P-59, in 25% ethanol), diethylaminoethyl acetylsalicylsalicylsalicylate. HCl salt (P-60, in 25% ethanol) were administered transdermally to the backs (6 cm^2, fur was shaved) of GK rats (SLAC/GK, 14-16 weeks old) and normal SD rats (SLAC/SD, 14-16 weeks old) once per day (at 8 am) for 6 weeks.
(§2) The blood glucose levels were measured once every 3 days at 4:30 pm (no fasting) from the third week to the sixth week as shown in Table 10a and 10b. […] Moreover, the blood glucose levels of the rats stayed at normal level (6-9 mmol/L, no fasting) after the treatment was stopped for 40 days.

normal SD rats (SLAC/SD) = experiment: Blood glucose in normal SD rats treated with HPCs of NSAIAs; assay type: in vivo; conditions: 30 mg/kg transdermally once per day, no fasting
Method: as §1, §2

SLAC/DB/DB obese mice = experiment: Blood glucose and blood lipid levels in DB/DB mice; assay type: in vivo; conditions: 30 mg/kg transdermally once per day
Method: HPCs in the present disclosure lowered blood glucose levels and blood lipid levels in mice models (SLAC/DB/DB, obese mice, n=7). 30 mg/kg of 8% diethylaminoethyl acetylsalicylate.HCl salt (P-1, in 25% ethanol); 4-acetamidophenyl salicylyldimethylaminobutyrate.HCl (P-6, in 25% ethanol), diethylaminoethyl 5-(2,4-difluorophenyl)acetylsalicylate.5-(2,4-difluorophenyl)acetylsalicylic acid salt (P-8, in 25% ethanol), diethylaminoethyl salicylsalicylate.HCl salt (P-9, in 25% ethanol), diethylaminoethyl salicylate.AcOH(P-10, in 25% ethanol), diethylaminoethyl 5-acetamido-acetylsalicylate.HCl(P-58, in 25% ethanol), diethylaminoethyl acetylsalicylsalicylate.HCl salt (P-59, in 25% ethanol), diethylaminoethyl acetylsalicylsalicylsalicylate.HCl salt (P-60, in 25% ethanol) were administered transdermally to the backs (4 cm^2,fur was shaved) of DB/DB mice(SLAC/DB/DB, 10-12 weeks old) once per day (at 8 am) for 5 weeks. The blood glucose levels were measured once per week and blood lipid levels were measured once every other week.

[2] = tested on: SLAC:NOD-IDDM, type 1 diabetes; experiment: Anti-diabetes (type I) activity of HPCs of NSAIAs; assay type: in vivo, mice; conditions: for blood glucose, Baseline: equal to 20 mg/kg of NSAIAs transdermally twice per day for 7 weeks; for blood glucose, Average: fourth week to seventh week, no fasting, equal to 20 mg/kg of NSAIAs transdermally twice per day
Description: 10% aqueous solution of diethylaminoethyl acetylsalicylate.acetylsalicylic acid salt (P-1, […]); 4-acetamidophenyl salicylyldimethylaminobutyrate. HCl (P-6), diethylaminoethyl 5-(2,4-difluorophenyl)acetylsalicylate.5-(2,4-difluorophenyl)acetylsalicylic acid salt (P-8), diethylaminoethyl salicylsalicylate.AcOH(P-9), diethylaminoethyl 5-acetamido-acetylsalicylate. HCl (P-58), diethylaminoethyl 2-(ρ-isobutylphenyl) propionate.citric acid (P-59), diethylaminoethyl acetylsalicylsalicylate. acetylsalicylsalicylsalicylic acid salt (P-60) (equal to of 20 mg/kg of NSAIAs) were administered transdermally to the shaved back (about 1.5 cm^2) of mice twice per day (at 8 am and 5 pm) for 7 weeks.
The blood glucose levels were measured once every 3 days at 4:30 pm (no fasting) from the fourth week to the seventh week as shown in Table 11.

[3] = tested on: Human Gastric Cancer HGC-27 cell; experiment: HGC-27 cell proliferation, MTT assay; assay type: cell-based; conditions: Homo sapiens, HGC-27, 72 hours, read-out: HGC-27 cell growth inhibition rate
Method: The inhibition of cellular proliferation was measured by the modified dimethyl thiazolyl diphenyl tetrazolium salt (MTT) [3-(4,5-dimethylthiazol-2-yl)-2,5-diphenyltetrazolium bromide] assay, based on the ability of live cells to converting thiazolyl blue to dark blue formazan. Approximately 3500 cells of HGC-27 (in 100 μl culture solution) were seeded into 96-well culture plates and were cultured for 16 hours at 37° C. Different concentration solution (100 μl) of Taxol (positive control), chlorambucil, or N,N-diethylaminoethyl 4-[bis(2-chloroethyl)amino]benzenebutyrate.HCl salt (HPC of chlorambucil) were added and incubation continued for 72 hours at 37° C. Then MTT were added and incubation continued at 37° C. for 4 h, and 100 μl DMSO was pipetted to solubilize the formazan product for 30 min at room temperature. The absorbency at 570 nm was measured using Bio-Rad micro-plate reader […].

[4] = tested on: human myeloma cell line implanted into mice; experiment: Survival of mice with multiple myeloma (Example 110, Study B); assay type: in vivo; conditions: n=5
Method: Study B: For evaluation of antitumor activity, a human myeloma cell line derived from the ascites of a patient with multiple myeloma was implanted into mice. The experiment was carried out on 17 groups of mice. Control group (A, orally), chlorambucil (group B1: 1 mg/kg, orally, group B2, 3 mg/kg, orally, group B3:1 mg/kg, transdermally, and group B4: 3 mg/kg, transdermally), melphalan (group C1: 1 mg/kg, orally, group C2, 3 mg/kg, orally, group C3:1 mg/kg, transdermally, and group C4: 3 mg/kg, transdermally), N,N-diethylaminoethyl 4-[bis(2-chloroethyl)amino]benzenebutyrate.HBr (the HPC of chlorambucil (group D1: 1 mg/kg, orally, group D2, 3 mg/kg, orally, group D3:1 mg/kg, transdermally, and group D4: 3 mg/kg, transdermally), and 4-[bis(2-chloroethyl)amino]-N-acetyl-L-phenylalanine N,N-diethylaminoethyl ester hydrobromide (the HPC of melphalan) (group E1: 1 mg/kg, orally, group E2, 3 mg/kg, orally, group E3:1 mg/kg, transdermally, and group E4: 3 mg/kg, transdermally).

[5] = tested on: human myeloma cell line implanted into mice; experiment: Survival and weight loss of myeloma mice (Example 111); assay type: in vivo; conditions: orally; for Weight Loss: day 21; for Life Elongation Rate / None Disease Rate / Survival Period: n=7
Description: A human myeloma cell line derived from the ascites of a patient with multiple myeloma was implanted into mice. The mice was divided into 11 groups: control group (A, orally), melphalan (B1 and B2, orally), chlorambucil (C1 and C2, orally), N,N-diethylaminoethyl 4-[bis(2-chloroethyl)amino]benzenebutyrate.HBr (D1 and D2, transdermally), 4-[bis(2-chloroethyl)amino]-N-acetyl-L-phenylalanine N,N-diethylaminoethyl ester hydrobromide (E1 and E2, transdermally in 5% aqueous solution), and diethylaminoethyl 4-[bis(2-methylsulfonylethyl)amino]benzenebutyrate.HCl (F1 and F2, transdermally in 5% aqueous solution). The body weight loss of mice was determined on day 21.

## CC(=O)Nc1ccc(OC(=O)c2ccccc2OC(=O)CCCN(C)C)cc1.Cl [P-6, 4-acetamidophenyl salicylyldimethylaminobutyrate.HCl]
[1]
  blood glucose, Average (Week 2-5): 9.2 ± 2.7 mmol/L
  blood glucose, Day 1: 16.8 ± 3.0 mmol/L
Normal SD rats (SLAC/SD)
  blood glucose, Average (Week 2-5): 5.8 ± 1.1 mmol/L
  blood glucose, Day 1: 5.7 ± 1.3 mmol/L
SLAC/DB/DB obese mice
  Cholesterol (total), Day 1: 7.0 ± 0.4 mmol/L
  Cholesterol (total), Week 5: 4.9 ± 0.5 mmol/L
  Triglycerides, Day 1: 4.4 ± 0.5 mmol/L
  Triglycerides, Week 5: 2.5 ± 0.3 mmol/L
  blood glucose, Day 1: 14.2 ± 2.0 mmol/L
  blood glucose, Week 5: 9.5 ± 2.8 mmol/L
[2]
  blood glucose, Baseline: 18.9 ± 4.3 mmol/L
  blood glucose, Average: 9.5 ± 2.1 mmol/L

## CC(=O)Oc1ccc(-c2ccc(F)cc2F)cc1C(=O)O.CCN(CC)CCOC(=O)c1cc(-c2ccc(F)cc2F)ccc1OC(C)=O [P-8, diethylaminoethyl 5-(2,4-difluorophenyl)acetylsalicylate.5-(2,4-difluorophenyl)acetylsalicylic acid salt]
[1]
  blood glucose, Average (Week 2-5): 8.3 ± 2.1 mmol/L
  blood glucose, Day 1: 16.9 ± 2.8 mmol/L
Normal SD rats (SLAC/SD)
  blood glucose, Average (Week 2-5): 5.7 ± 1.2 mmol/L
  blood glucose, Day 1: 5.6 ± 1.5 mmol/L
SLAC/DB/DB obese mice
  Cholesterol (total), Day 1: 6.8 ± 0.4 mmol/L
  Cholesterol (total), Week 5: 5.0 ± 0.2 mmol/L
  Triglycerides, Day 1: 4.4 ± 0.4 mmol/L
  Triglycerides, Week 5: 2.2 ± 0.4 mmol/L
  blood glucose, Day 1: 14.5 ± 2.7 mmol/L
  blood glucose, Week 5: 8.4 ± 2.1 mmol/L
[2]
  blood glucose, Baseline: 19.4 ± 3.1 mmol/L
  blood glucose, Average: 9.7 ± 1.4 mmol/L

## CCN(CC)CCOC(=O)c1ccccc1OC(=O)c1ccccc1O.Cl [P-9, diethylaminoethyl salicylsalicylate.HCl salt]
[1]
  blood glucose, Average (Week 2-5): 9.4 ± 2.7 mmol/L
  blood glucose, Day 1: 16.4 ± 2.3 mmol/L
Normal SD rats (SLAC/SD)
  blood glucose, Average (Week 2-5): 5.6 ± 1.2 mmol/L
  blood glucose, Day 1: 5.5 ± 1.3 mmol/L
SLAC/DB/DB obese mice
  Cholesterol (total), Day 1: 7.7 ± 0.5 mmol/L
  Cholesterol (total), Week 5: 4.9 ± 0.5 mmol/L
  Triglycerides, Day 1: 4.1 ± 0.4 mmol/L
  Triglycerides, Week 5: 2.1 ± 0.3 mmol/L
  blood glucose, Day 1: 14.1 ± 2.5 mmol/L
  blood glucose, Week 5: 8.7 ± 2.3 mmol/L
[2]
  blood glucose, Baseline: 16.5 ± 3.6 mmol/L
  blood glucose, Average: 8.4 ± 1.9 mmol/L

## CC(=O)O.CCN(CC)CCOC(=O)c1ccccc1O [P-10, diethylaminoethyl salicylate.AcOH]
[1]
  blood glucose, Average (Week 2-5): 9.1 ± 2.2 mmol/L
  blood glucose, Day 1: 16.7 ± 3.2 mmol/L
Normal SD rats (SLAC/SD)
  blood glucose, Average (Week 2-5): 5.7 ± 1.3 mmol/L
  blood glucose, Day 1: 5.8 ± 1.2 mmol/L
SLAC/DB/DB obese mice
  Cholesterol (total), Day 1: 6.8 ± 0.4 mmol/L
  Cholesterol (total), Week 5: 4.7 ± 0.5 mmol/L
  Triglycerides, Day 1: 4.8 ± 0.9 mmol/L
  Triglycerides, Week 5: 2.3 ± 0.3 mmol/L
  blood glucose, Day 1: 15.1 ± 3.7 mmol/L
  blood glucose, Week 5: 9.2 ± 2.3 mmol/L
[2]
  blood glucose, Baseline: 18.8 ± 3.4 mmol/L
  blood glucose, Average: 8.6 ± 1.8 mmol/L

## O=C(O)CCCc1ccc(N(CCCl)CCCl)cc1 [chlorambucil, reference compound]
[3]; 0.5 μM
  inhibition at 0.5 µM: 0.3%
[3]; 2.0 μM
  inhibition at 2 µM: 1.6%
[3]; 5.0 μM
  inhibition at 5 µM: 12.5%
[3]; 25 μM
  inhibition at 25 µM: 31.5%
[3]; 50 μM
  inhibition at 50 µM: 39.4%
[3]; 75 μM
  inhibition at 75 µM: 41.5%
[3]; 100 μM
  inhibition at 100 µM: 53.1%
[3]; 200 μM
  inhibition at 200 µM: 62.1%
[3]; 500 μM
  inhibition at 500 µM: 81%
[4]; 1 mg/kg per day, orally
  Life Elongation Rate: 107%
  Survival Period: 48.7 ± 5.3 days
[4]; 1 mg/kg per day, transdermally
  Life Elongation Rate: 99%
  Survival Period: 46.1 ± 3.6 days
[4]; 3 mg/kg per day, orally
  Life Elongation Rate: 151%
  Survival Period: 68.5 ± 4.2 days
[4]; 3 mg/kg per day, transdermally
  Life Elongation Rate: 98%
  Survival Period: 44.6 ± 3.6 days
[5]; 1.5 mg/kg per day
  Weight Loss: 10%
  Life Elongation Rate: 126%
  None Disease Rate: 2/7
  Survival Period: 54.8 ± 5.5 days
[5]; 3 mg/kg per day
  Weight Loss: 17%
  Life Elongation Rate: 200%
  None Disease Rate: 3/7
  Survival Period: 87.2 ± 6.9 days
